Measurements reported in ChEMBL document CHEMBL1149720, “Homoscalarane sesterterpenes from Lendenfeldia frondosa” (J Nat Prod, 1992).
Active and inactive are the calls of the source. No cut-off for these calls is given here.

Tests used:
[1] = Inhibition of PLA2 activity at 8 uM
[2] = Inhibition of PLA2 activity at 4 uM

SMILES: CC(=O)OC[C@]12CCCC(C)(C)[C@@H]1CC[C@]1(C)[C@@H]2C[C@@H](O)[C@]2(C)[C@H]3C(=O)O[C@@H](C)[C@@H]3[C@@H](OC(C)=O)C[C@@H]12
- Activity [1]: inactive

SMILES: CC(=O)OC[C@]12CCCC(C)(C)[C@@H]1CC[C@]1(C)[C@@H]2C[C@H]2OC(=O)[C@H]3[C@H](C(C)=O)[C@H](OC(C)=O)C[C@@H]1[C@]23C
- inhibition [1]: 35%

SMILES: COC(=O)[C@H]1[C@H](C(C)=O)[C@@H](OC(C)=O)C[C@H]2[C@]3(C)CC[C@H]4C(C)(C)CCC[C@]4(COC(C)=O)[C@H]3C[C@@H](O)[C@]12C
- Activity [1]: inactive

SMILES: CC1=C(CC/C(C)=C/CCC2=CC[C@H](C3=CC(=O)O[C@H]3O)O[C@H]2O)C(C)(C)CCC1
- inhibition [2]: 100%
